# Patent US6433015B1, “Method for reducing body weight” (IPR-Institute for Pharmaceutical Research AG, priority 1997, dated 2002)
# Assays:
# [1] = 7-month study on body weight loss in 22 test persons administered creatine; format: in vivo, human
# Method: An experiment was carried out with 22 test persons in order to confirm the weight reducing effect of creatine using the dosage according to the invention. The test persons were instructed for the duration of the experiment not to change their day-to-day habits (diet and physical exercise). In order to find the optimal dosage the test persons were initially divided into three groups with a daily dosage of either 100 mg, 300 mg or 600 mg of creatine. […] The data are reported as so-called body mass index (BMI), which is calculated from the body weight in dilograms divided by the height in meters in square.
# [2] = cited from earlier work
smiles,measurement,setting,value
"CN(CC(=O)O)C(=N)N [creatine, N-Amidinosarcosine]","body weight, reported as body mass index (BMI)","[1]; 7-month study, 22 test persons, after the 3 months dosage-finding period, single daily dose of 100 mg",a steady decrease of body weight occured
same,weight loss in dosage-finding period,"[1]; groups with daily dosage of 100 mg, 300 mg or 600 mg of creatine, after 3 months, diet and physical exercise unchanged",the group with 100 mg had shown the most noticeable weight loss
same,body weight,"[2]; daily dosage of at least 15 g to 30 g (0.2 g to 0.4 g per kilogram body weight), physically active test persons, WO 94/02127, Sahelian, Gremion",enhancement of body weight
same,fat mass,"[2]; high-dose creatine with high muscle strain, Sahelian 1997, Gremion 1995",the fat mass is decreased
